Measured values reported in US12559464B2, “Quinazolinone dione compounds and uses thereof” (Edgewise Therapeutics, Inc., priority 2023, dated 2026).

How the values were obtained:
[1] = molecular target: T1, myosin ATPase, Porcine Ventricle myofibrils (Sus scrofa, UniProt P79293); assay: Myofibril ATPase assay, porcine ventricle myofibrils; assay type: biochemical, porcine (Yucatan minipigs); conditions: concentration required to reduce myosin ATP-ase activity by 25%; Porcine Ventricle Prep pCa 25 GEOM_MEAN
T1 construct: Myofibrils from porcine cardiac muscle was isolated from the left ventricle of Yucatan minipigs; tissue Exemplar Genetics; host or cells: left ventricle of Yucatan minipigs, myofibrils
T1 sequence (P79293 whole entry): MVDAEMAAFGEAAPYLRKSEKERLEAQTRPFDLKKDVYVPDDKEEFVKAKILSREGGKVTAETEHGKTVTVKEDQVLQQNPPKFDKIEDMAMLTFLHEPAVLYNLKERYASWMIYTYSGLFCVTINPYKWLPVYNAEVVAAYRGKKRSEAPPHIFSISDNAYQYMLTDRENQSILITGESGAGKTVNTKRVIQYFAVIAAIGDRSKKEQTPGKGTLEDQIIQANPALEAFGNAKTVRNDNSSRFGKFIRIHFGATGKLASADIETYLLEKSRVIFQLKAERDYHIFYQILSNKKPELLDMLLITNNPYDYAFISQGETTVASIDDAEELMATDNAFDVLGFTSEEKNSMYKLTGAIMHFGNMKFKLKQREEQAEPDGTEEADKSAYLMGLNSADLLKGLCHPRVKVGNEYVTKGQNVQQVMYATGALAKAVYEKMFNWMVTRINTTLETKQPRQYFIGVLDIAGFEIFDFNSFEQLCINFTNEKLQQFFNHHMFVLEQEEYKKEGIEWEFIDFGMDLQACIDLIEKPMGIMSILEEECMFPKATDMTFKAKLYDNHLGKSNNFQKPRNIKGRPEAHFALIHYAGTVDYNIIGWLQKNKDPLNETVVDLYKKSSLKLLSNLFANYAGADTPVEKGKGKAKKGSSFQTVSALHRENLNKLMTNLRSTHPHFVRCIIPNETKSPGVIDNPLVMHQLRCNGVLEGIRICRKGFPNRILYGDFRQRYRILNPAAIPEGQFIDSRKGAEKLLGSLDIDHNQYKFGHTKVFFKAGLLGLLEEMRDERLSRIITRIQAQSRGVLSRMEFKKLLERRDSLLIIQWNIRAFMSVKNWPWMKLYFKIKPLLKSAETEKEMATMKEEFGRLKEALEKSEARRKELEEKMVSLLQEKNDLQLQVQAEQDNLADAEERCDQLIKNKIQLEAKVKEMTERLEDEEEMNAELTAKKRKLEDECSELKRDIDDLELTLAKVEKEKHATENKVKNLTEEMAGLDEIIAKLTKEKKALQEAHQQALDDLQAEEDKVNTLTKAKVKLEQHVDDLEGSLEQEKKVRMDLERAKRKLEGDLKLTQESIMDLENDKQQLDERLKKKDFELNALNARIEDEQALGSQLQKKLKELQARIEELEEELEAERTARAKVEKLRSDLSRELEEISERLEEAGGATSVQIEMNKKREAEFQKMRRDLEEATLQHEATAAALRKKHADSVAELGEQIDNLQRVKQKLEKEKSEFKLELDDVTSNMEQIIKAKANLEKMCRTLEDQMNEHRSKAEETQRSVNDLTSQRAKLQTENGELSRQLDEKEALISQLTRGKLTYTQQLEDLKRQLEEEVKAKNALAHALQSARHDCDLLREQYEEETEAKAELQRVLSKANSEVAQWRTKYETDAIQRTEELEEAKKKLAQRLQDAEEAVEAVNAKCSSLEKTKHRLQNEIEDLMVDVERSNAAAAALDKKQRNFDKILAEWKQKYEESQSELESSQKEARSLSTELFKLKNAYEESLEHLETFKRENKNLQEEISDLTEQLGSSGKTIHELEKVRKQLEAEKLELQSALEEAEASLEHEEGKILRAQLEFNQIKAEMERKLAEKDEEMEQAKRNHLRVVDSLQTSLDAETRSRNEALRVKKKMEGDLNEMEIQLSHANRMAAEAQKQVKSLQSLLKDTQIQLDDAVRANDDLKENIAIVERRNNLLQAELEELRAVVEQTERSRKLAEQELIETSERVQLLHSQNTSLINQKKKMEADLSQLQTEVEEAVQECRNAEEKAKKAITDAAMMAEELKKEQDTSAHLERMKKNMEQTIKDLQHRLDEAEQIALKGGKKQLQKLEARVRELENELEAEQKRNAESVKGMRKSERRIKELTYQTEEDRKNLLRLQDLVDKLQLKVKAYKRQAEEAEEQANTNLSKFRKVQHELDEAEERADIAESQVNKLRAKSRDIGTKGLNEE
How it was run: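 Myofibrils from Yucatan minipig left ventricle; ADP production coupled via PK-LDH to NADH loss, read kinetically at 340 nm every 1.5–2 min for 75 min in PIPES/MgCl2 pH 7.0 buffer. Slopes normalized to vehicle and fit to 4-parameter logistic; values are concentrations giving 75% (inhibition) or 125% (activation) of vehicle activity.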

[2] = tested on: myosin ATPase, Rabbit Psoas myofibrils; assay: Myofibril ATPase assay, rabbit psoas (skeletal) myofibrils; assay type: biochemical; conditions: Rabbit Psoas Prep pCa 25 GEOM_MEAN; for Rabbit Psoas EC25 (Y75 value): concentration required to reduce myosin ATP-ase activity by 25%; for Rabbit Psoas Y125 value (marked #): concentration required to increase myosin ATP-ase activity by 25%
[3] = tested on: myosin ATPase, Porcine Atria myofibrils; assay: Myofibril ATPase assay, porcine atria myofibrils; assay type: biochemical; conditions: concentration required to reduce myosin ATP-ase activity by 25%; Porcine Atria Prep pCa 25 GEOM_MEAN

Structure (SMILES)	Porcine Ventricle EC25 (Y75 value) [1] [µM]	Rabbit Psoas EC25 (Y75 value) [2] [µM]	Porcine Atria EC25 (Y75 value) [3] [µM]	Rabbit Psoas Y125 value (marked #) [2]
Cc1c(F)ccc2[nH]c(=O)n(CC(=O)N[C@H]3CCc4cc(C#N)cnc43)c(=O)c12 [Compound 10, (S)-N-(3-cyano-6,7-dihydro-5H-cyclopenta[b]pyridin-7-yl)-2-(6-fluoro-5-methyl-2,4-dioxo-1,4-dihydroquinazolin-3(2H)-yl)acetamide]	100	100	100	
Cc1nccc2[nH]c(=O)n(CC(=O)N[C@@H](C)c3ncc(C#N)cc3F)c(=O)c12 [Compound 20, (S)-N-(1-(5-cyano-3-fluoropyridin-2-yl)ethyl)-2-(5-methyl-2,4-dioxo-1,4-dihydropyrido[4,3-d]pyrimidin-3(2H)-yl)acetamide]	7.141	0.799	2.095	
C[C@H](NC(=O)[C@H](Cc1ccccc1)n1c(=O)[nH]c2cccc(O)c2c1=O)c1ccc(F)cc1F [Compound 33, (S)-N-((S)-1-(2,4-difluorophenyl)ethyl)-2-(5-hydroxy-2,4-dioxo-1,4-dihydroquinazolin-3(2H)-yl)-3-phenylpropanamide]	100		100	51.2^# μM
C[C@H](NC(=O)[C@@H](Cc1ccccc1)n1c(=O)[nH]c2cccc(O)c2c1=O)c1ccc(F)cc1F [Compound 34, (R)-N-((S)-1-(2,4-difluorophenyl)ethyl)-2-(5-hydroxy-2,4-dioxo-1,4-dihydroquinazolin-3(2H)-yl)-3-phenylpropanamide]	45.37		48.85	0.85^#^ μM
C[C@H](NC(=O)[C@@H](C)n1c(=O)[nH]c2ccc(F)c(F)c2c1=O)c1ccc(F)cc1F [Compound 37, (R)-2-(5,6-difluoro-2,4-dioxo-1,4-dihydroquinazolin-3(2H)-yl)-N-((S)-1-(2,4-difluorophenyl)ethyl)propanamide]	17.77	0.412	0.658	
C[C@H](NC(=O)[C@H](C)n1c(=O)[nH]c2ccc(F)c(F)c2c1=O)c1ccc(F)cc1F [Compound 38, (S)-2-(5,6-difluoro-2,4-dioxo-1,4-dihydroquinazolin-3(2H)-yl)-N-((S)-1-(2,4-difluorophenyl)ethyl)propanamide]	3.995	0.422	0.185	
C[C@H](NC(=O)Cn1c(=O)[nH]c2ccc(F)c(F)c2c1=O)c1ccc(F)cc1F [Compound 39, (S)-2-(5,6-difluoro-2,4-dioxo-1,4-dihydroquinazolin-3(2H)-yl)-N-(1-(2,4-difluorophenyl)ethyl)acetamide]	0.3333	0.055	0.0536	
C[C@H](NC(=O)[C@H](C)n1c(=O)[nH]c2ccc(F)cc2c1=O)c1ccc(F)cc1F [Compound 40, (S)-N-((S)-1-(2,4-difluorophenyl)ethyl)-2-(6-fluoro-2,4-dioxo-1,4-dihydroquinazolin-3(2H)-yl)propanamide]	6.567	0.476	0.1074	
C[C@H](NC(=O)[C@@H](C)n1c(=O)[nH]c2ccc(F)cc2c1=O)c1ccc(F)cc1F [Compound 41, (R)-N-((S)-1-(2,4-difluorophenyl)ethyl)-2-(6-fluoro-2,4-dioxo-1,4-dihydroquinazolin-3(2H)-yl)propanamide]	28.36	0.828	1.375	
C[C@H](NC(=O)C(C)(C)n1c(=O)[nH]c2ccccc2c1=O)c1ccc(F)cc1F [Compound 42, (S)-N-(1-(2,4-difluorophenyl)ethyl)-2-(2,4-dioxo-1,4-dihydroquinazolin-3(2H)-yl)-2-methylpropanamide]	100	100	100	
CN1CC(NC(=O)Cn2c(=O)[nH]c3ccccc3c2=O)c2c(F)cc(F)cc2C1=O (stereo not drawn) [Compound 43, N-(5,7-difluoro-2-methyl-1-oxo-1,2,3,4-tetrahydroisoquinolin-4-yl)-2-(2,4-dioxo-1,4-dihydroquinazolin-3(2H)-yl)acetamide]	100	58.79	100	

Continued, values first:

Porcine Ventricle EC25 (Y75 value) [1] [µM]	Rabbit Psoas EC25 (Y75 value) [2] [µM]	Porcine Atria EC25 (Y75 value) [3] [µM]	Rabbit Psoas Y125 value (marked #) [2]	Structure (SMILES)
100	100	100		O=C(Cn1c(=O)[nH]c2ccccc2c1=O)NC1CNC(=O)c2cc(F)cc(F)c21 (stereo not drawn) [Compound 46, N-(5,7-difluoro-1-oxo-1,2,3,4-tetrahydroisoquinolin-4-yl)-2-(2,4-dioxo-1,4-dihydroquinazolin-3(2H)-yl)acetamide]
100	1.97	1.442		CC(NC(=O)Cn1c(=O)[nH]c2ccccc2c1=O)c1ncc(F)cc1F (stereo not drawn) [Compound 47, N-(1-(3,5-difluoropyridin-2-yl)ethyl)-2-(2,4-dioxo-1,4-dihydroquinazolin-3(2H)-yl)acetamide]
13.83	0.984	0.2427		Cc1ccc2[nH]c(=O)n(CC(=O)N[C@@H](C)c3ccc(F)cc3F)c(=O)c2c1 [Compound 51, (S)-N-(1-(2,4-difluorophenyl)ethyl)-2-(6-methyl-2,4-dioxo-1,4-dihydroquinazolin-3(2H)-yl)acetamide]
100	100	100		C[C@H](NC(=O)Cn1c(=O)[nH]c2ccnc(O)c2c1=O)c1ccc(F)cc1F [Compound 59, (S)-N-(1-(2,4-difluorophenyl)ethyl)-2-(5-hydroxy-2,4-dioxo-1,4-dihydropyrido[4,3-d]pyrimidin-3(2H)-yl)acetamide]
100	8.499	3.241		COc1nccc2[nH]c(=O)n(CC(=O)N[C@@H](C)c3ccc(F)cc3F)c(=O)c12 [Compound 65, (S)-N-(1-(2,4-difluorophenyl)ethyl)-2-(5-methoxy-2,4-dioxo-1,4-dihydropyrido[4,3-d]pyrimidin-3(2H)-yl)acetamide]
100	1.147	21.1		COc1cccc2[nH]c(=O)n(CC(=O)N[C@@H](C)c3ccc(F)cc3F)c(=O)c12 [Compound 69, (S)-N-(1-(2,4-difluorophenyl)ethyl)-2-(5-methoxy-2,4-dioxo-1,4-dihydroquinazolin-3(2H)-yl)acetamide]
53.2	3.86	12.67		CCC(NC(=O)Cn1c(=O)[nH]c2ccccc2c1=O)c1ccc(F)cc1F (stereo not drawn) [Compound 71, N-(1-(2,4-difluorophenyl)propyl)-2-(2,4-dioxo-1,4-dihydroquinazolin-3(2H)-yl)acetamide]
0.2524	0.019	0.1151		C[C@H](NC(=O)Cn1c(=O)[nH]c2cccc(O)c2c1=O)c1ccc(F)cc1F [Compound 72, (S)-N-(1-(2,4-difluorophenyl)ethyl)-2-(5-hydroxy-2,4-dioxo-1,4-dihydroquinazolin-3(2H)-yl)acetamide]
0.707	0.0495	0.1149		Cc1cccc2[nH]c(=O)n(CC(=O)N[C@@H](C)c3ccc(F)cc3F)c(=O)c12 [Compound 73, (S)-N-(1-(2,4-difluorophenyl)ethyl)-2-(5-methyl-2,4-dioxo-1,4-dihydroquinazolin-3(2H)-yl)acetamide]
100	0.817	5.405		O=C(Cn1c(=O)[nH]c2ccccc2c1=O)NC(CO)c1ccc(F)cc1F (stereo not drawn) [Compound 87, N-(1-(2,4-difluorophenyl)-2-hydroxyethyl)-2-(2,4-dioxo-1,4-dihydroquinazolin-3(2H)-yl)acetamide]
